According to patent publication US6893830B1, “Method of screening oxysterol activation of LXRα” (The Board of Regents of the University of Texas System, priority 1996, dated 2005):

How the values were obtained:
[1] = tested on: other known nuclear receptors (RXRα, RARα, TRβ, VDR, PPARα, FXR, ER, GR, usp/EcR); assay: Receptor-specific transactivation: cotransfection of other nuclear receptors with their cognate response element reporters in CV-1 cells; assay type: cell-based, human; conditions: 6 μM 22(R)-hydroxycholesterol
Procedure: (§1) TK-DR-4-LUC; human vitamin D receptor (VDR)^24, TK-DR^3-LUC; human peroxisome proliferator-activated receptor-α (PPARα)^25, TK-PPREx3-LUC; human farnesol activated receptor (FXR)^11, ΔMTV-EcREx5-LUC; human estrogen receptor (ER)^26, ΔMTV-ERE-LUC; human glucocorticoid receptor (GR)^27, MTV-LUC; Drosophila ecdysone receptor (usp/EcR)^15, ΔMTV-EcREx5-LUC. Cells were treated with ETOH or 6 μM 22(R)-hydroxycholesterol. […] FIG. 3(A)-3(D) Activation of LXRα by 22(R)-hydroxycholesterol in Drosophila (SL-2) cells. […] CV-1 cells were cotransfected with TK-LXREx3-LUC reporter plasmid and expression plasmids containing the indicated receptor combinations, and then treated with the indicated ligands. […] CV-1 cells cotransfected with the LXRα expression plasmid and TK-LXREx3-LUC reporter were treated with 9-cis RA, 22(R)-hydroxycholesterol, or both, at the indicated concentrations.
(§2) In FIG. 3B. Drosophila SL-2 cells were transfected and assayed as previously described^5 in 6-well plates with […] A5C-hLXRα or A5C-hLXRα, 0.5 mg ADH-LXREx2-LUC, 0.2 mg A5C-βGAL and […] PGEM4 carrier DNA per well.

[2] = target: T1, LXR-TR chimera (LXRα N-terminus and DNA binding domain fused to ligand binding domain of TRβ) (Homo sapiens, UniProt P10828+Q13133); conditions: CV-1 cells, TK-LXREx3-LUC
T1 sequence (Q13133+P10828 with tags, fused parts or gaps): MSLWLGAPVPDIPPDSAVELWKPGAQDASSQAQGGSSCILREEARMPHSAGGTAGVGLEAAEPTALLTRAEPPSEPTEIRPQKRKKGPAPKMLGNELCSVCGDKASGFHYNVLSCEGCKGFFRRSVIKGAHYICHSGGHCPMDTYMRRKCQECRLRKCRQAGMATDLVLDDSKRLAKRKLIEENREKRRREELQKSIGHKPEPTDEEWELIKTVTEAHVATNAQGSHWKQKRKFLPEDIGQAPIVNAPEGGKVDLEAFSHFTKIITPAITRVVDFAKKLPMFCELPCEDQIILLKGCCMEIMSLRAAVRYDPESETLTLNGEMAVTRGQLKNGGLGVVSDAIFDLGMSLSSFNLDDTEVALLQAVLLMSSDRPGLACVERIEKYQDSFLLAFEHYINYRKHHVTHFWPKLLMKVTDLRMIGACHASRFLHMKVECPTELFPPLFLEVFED

[3] = target: T2, LXRα protein (Homo sapiens, UniProt Q13133); assay: Limited protease protection assay (chymotrypsin) of [35S]-labelled Flag-LXRα; assay type: binding; conditions: increasing concentrations of chymotrypsin, SDS-PAGE and autoradiography
T2 construct: made in house; host or cells: in vitro synthesis (cell-free translation)
T2 sequence (Q13133 1-447): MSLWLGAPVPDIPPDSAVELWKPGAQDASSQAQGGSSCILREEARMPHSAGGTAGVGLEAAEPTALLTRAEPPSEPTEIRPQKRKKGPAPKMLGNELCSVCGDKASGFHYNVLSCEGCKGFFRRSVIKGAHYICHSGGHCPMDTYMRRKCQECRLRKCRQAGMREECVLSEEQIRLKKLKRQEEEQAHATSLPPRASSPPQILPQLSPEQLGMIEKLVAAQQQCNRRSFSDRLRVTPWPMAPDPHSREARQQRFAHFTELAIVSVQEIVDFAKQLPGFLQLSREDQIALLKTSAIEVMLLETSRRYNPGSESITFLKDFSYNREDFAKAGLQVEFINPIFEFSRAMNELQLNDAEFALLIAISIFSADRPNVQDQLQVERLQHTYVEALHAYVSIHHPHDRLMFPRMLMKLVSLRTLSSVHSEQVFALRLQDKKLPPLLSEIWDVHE
Procedure: FIG. 4, Protease protection of LXRα with 22(R)-hydroxycholesterol. [^35S]-labelled LXRα protein was incubated with (A) ethanol (ETOH) control or (B) 22(R)-hydroxycholesterol, subjected to protease digestion with increasing amounts of chymotrypsin, and analyzed by SDS-PAGE and autoradiography.
In vitro synthesized [^35S]-labelled Flag-LXRα protein was subjected to protease digestion with α-chymotrysin. For these studies, LXRα with a Flag epitope fused to the amino terminus was used.
The unavailability of radiolabelled LXRα activators prevents direct ligand binding analysis. To address the possibility that 22(R)-hydroxycholesterol interacts with LXRα, a limited protease protection assay was performed (FIG. 4). In this experiment, several proteolytic fragments were generated when LXRα protein was incubated with increasing concentrations of the protease, chymotrypsin. […] The presence of a specific ligand-protected ˜30 kDa fragment has also been observed during similar analyses with other nuclear receptors. Thus, these protease protection studies support the finding that 22(R)-hydroxycholesterol interacts with LXRα.

[4] = target: T3, LXRα (Homo sapiens, UniProt Q13133); assay: Activation of LXRα in Drosophila SL-2 cells (LXR responsive reporter); assay type: cell-based; set-up: expressed in transfected cells; host or cells: Drosophila SL-2 cells; conditions: 10 μM
T3 sequence (Q13133 1-447): T2 sequence (Q13133 1-447)
T3 sequence (P19793 1-462 partner): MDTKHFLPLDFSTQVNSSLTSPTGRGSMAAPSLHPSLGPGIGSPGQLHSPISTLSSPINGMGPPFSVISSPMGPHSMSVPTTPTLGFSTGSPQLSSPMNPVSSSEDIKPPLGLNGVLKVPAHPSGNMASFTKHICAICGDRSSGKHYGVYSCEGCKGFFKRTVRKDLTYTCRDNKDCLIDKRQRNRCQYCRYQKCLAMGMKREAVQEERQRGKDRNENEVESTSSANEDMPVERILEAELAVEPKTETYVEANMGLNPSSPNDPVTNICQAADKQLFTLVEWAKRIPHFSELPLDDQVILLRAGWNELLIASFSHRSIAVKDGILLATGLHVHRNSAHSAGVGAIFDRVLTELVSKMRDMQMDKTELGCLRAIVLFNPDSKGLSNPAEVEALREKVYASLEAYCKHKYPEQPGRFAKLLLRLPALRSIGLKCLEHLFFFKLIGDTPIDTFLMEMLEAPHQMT
Procedure: as §1, §2
The insect cell line, SL-2, which lacks mammalian nuclear receptors and is deficient in the metabolic pathways for cholesterol and bile acid synthesis^14, was used as a transfection host in these experiments. […]

CC(C)CC[C@@H](O)[C@@H](C)[C@H]1CC[C@H]2[C@@H]3CC=C4C[C@@H](O)CC[C@]4(C)[C@H]3CC[C@]12C [22(R)-hydroxycholesterol]
cross-reactivity with other known nuclear receptors (transactivation) [1]: no cross-reactivity
responsiveness of LXR-TR chimera [2]: loses responsiveness
ligand-protected 30 kDa chymotrypsin fragment of LXRα [3]: consistently observed
induction, LXRα alone transfected ([4]; LXRα alone): 6 fold
induction, RXRα cotransfected with LXRα ([4]; RXRα plus LXRα): 26 fold
